Data taken from patent US20260097111A1, “ETHER LIPIDS FOR HYPERACTIVATION OF MAMMALIAN DENDRITIC CELLS” (priority 2022, published 2026).

Legend:
human moDC = assay: Staining moDC for activation marker expression; format: cell-based
Experimental: Staining moDC for Activation Marker Expression. After treatment and supernatant collection, cells were resuspended in 200 μL/well PBS and transferred to 96-well V-bottom plates. To pellet cells and remove supernatant, plates were spun at 400×g for 4 min for this and subsequent steps. Cells were washed again with 200 μL/well PBS and pelleted. Live/dead Near-IR staining dye was diluted 1000-fold in PBS. […] Fc block was diluted 100-fold in FACS buffer, and 100 μL/well was added to cells. Cells were incubated with Fc block for 10 min at 4° C. During incubation primary CCR7 antibody (clone 2H4) was diluted 100-fold in FACS buffer. Cells were pelleted and primary CCR7 antibody was added at 100 μL/well. Cells were incubated at 37° C. for 30 min. Biotinylated rat anti-mouse IgM secondary was prepared by diluting 200-fold in FACS buffer. Cells were washed twice with FACS buffer before 100 μL/well secondary antibody was added. Cells were incubated at 4° C. for 20 min. Tertiary staining antibody cocktail was prepared in a mixture of FACS buffer and Brilliant Stain Buffer (1:1 volume ratio of each buffer). […], CD11c (PE-Cy7), CD209 (PE), CD40 (UV563), CD83 (UV737), CD86 (BV711), and HLA-DR (UV395) were all diluted 200-fold. HLA-ABC (BV605) was diluted 100-fold. […]
For flow cytometry analysis, fluorescence compensation was set up using compensation […]. […]

murine FLT3L-DCs = assay: Murine bone marrow-derived FLT3L-DCs hyperactivation; format: cell-based, mice; details: R848 alone vs R848 in combination with DGP; FIG. 4C
Experimental: Murine bone marrow-derived FLT3L-DCs generation. Leg femur and tibia were removed from mice, cut with scissors, and flushed into sterile tubes. Bone marrow suspension was treated with ACK for 1 minute, then passed through a 40 um cell strainer. Cells were counted and resuspended in media consisting of complete IMDM containing 10% FBS, penicillin and streptomycin, and supplements of L-glutamine and sodium pyruvate (I10). […] For each experiment, 5 mice are used to collect BM and to generate DCs.
Lipid preparation. […] Lipid stocks were then further diluted in PBS to treat cells.
Murine bone marrow-derived FLT3L-DCs hyperactivation. BMDCs were harvested on day 8 post differentiation, washed with PBS, and re-plated in FLT3L-containing I10 at a concentration of 1×10^5 cells/mL. Cells were primed with or without 1 μg/mL R848 (final) then treated with or without a hyperactivating lipid (or vehicle control). Forty-eight hours post stimulation, supernatants were collected for cytokine measurement. Viability was measured using the CellTiter-Glo assay (Promega) which measures ATP content from cells. Fifty microliters of CellTiter-Glo reagent were added to 50 μL of cells. Luminescence was quantified on a SpectraMax m5e plate reader using an integration time of 500 milliseconds. Viability data were set relative to control conditions where cells were treated with R848. IL-1β and TNFα cytokine were measured using sandwich ELISAs (Invitrogen).

## CCCCCCCCCCCCCCCCCCCCCCOC[C@@H](O)COP(=O)(O)O [Compound 2, 1-docosyl-sn-glycerol-3-phosphate]
Human moDC; 2.85 μM R848 and/or 82.5 μM DGP, overnight, FIG. 24A
  percentage of CD83+ cells: increased CD83 expression, but increase was not found to be statistically significant
Human moDC; FIG. 25B
  CD86 MFI: significant increases in CD86 expression as compared to unstimulated cells
Murine FLT3L-DCs
  TNFα secretion: comparable
